Earlier results on one molecule are cited in patent publication US9066886B2, “Transdermal drug delivery system containing granisetron” (TAHO PHARMACEUTICALS, LTD., priority 2008, dated 2015).

For the data set the following is noted: tablet with 1 mg of granisetron; from Korean Patent Laid-Open Publication No. 10-2005-0116365.

As usually defined, the Cmax is the peak of the concentration-time curve. As to `CN1C2CCCC1CC(NC(=O)c1nn(C)c3ccccc13)C2` (stereo not shown) [granisetron], the Cmax is 3.6 ng/mL.
